How the values were obtained:
[1] = tested on: GFRα1 mRNA in MG-63 and U-2 OS cells; assay: Quantitative real-time PCR of GFRα1 mRNA after cisplatin; type: cell-based, human; settings: both cell lines; dose and time dependent
Method: FIG. 1. Cisplatin induces GFRα1 expression in osteosarcoma cells. (a-c) Immunoblot analysis of osteosarcoma cell lysates with antibodies specific for GFRα1 and β-actin. (a) MG-63 and U-2 OS cells were treated with doxorubicin (5 μM), cisplatin (20 μM), or methotrexate (1 mM) for 24 hr. Immunoblot analysis of GFRα1 (left) and quantification of GFRα1 expression (right) after treatment of chemotherapeutic agents. (b) MG-63 and U-2 OS cells were treated with different concentrations of cisplatin for 24 hr. (c) MG-63 and U-2 OS cells were treated with cisplatin (20 μM) and collected at the indicated time. (d and e) Quantitative real-time PCR of GFRα1 mRNA expression after cisplatin treatment. Representative images (top) and quantitative analysis (bottom) of GFRα1 mRNA expression. The values are presented as a mean±s.d.m (n=3). ** denotes p<0.05 by t-test. (d) MG-63 and U-2 OS cells were treated with different concentrations of cisplatin for 24 hr. (e) MG-63 and U-2 OS cells were treated with cisplatin (20 μM) and collected at the indicated time.
Quantitative real-time (RT)-PCR (qPCR). Total RNA was collected and isolated from cell lines using the RNeasy system according to the manufacturer's protocol (Qiagen, Hilden, Germany). cDNA was generated from a 30 μl reaction containing total RNA (3 μg), reverse transcriptase and oligo dT primers (Promega, Madison, Wis.). […]

[2] = tested on: cytoplasmic HMGB1 in MG-63/GFRα1 tumors; assay: Immunofluorescence of HMGB1 in xenograft tumors; type: in vivo, mouse; settings: tumors of MG-63/GFRα1 cell grafted mice
Method: FIG. 5. GFRα1-mediated autophagy promotes chemoresistance and tumor growth in vivo. (a) BALB/c nude mice (n =40) were injected with MG-63 cells that were transfected with either control or GFRα1 expressing vector. Tumor volume was measured every 3 or 4 days. Data are shown as mean±SEM. ** p<0.05. (b) BALB/c nude mice (n=20) were injected with MG-63 cells that were transfected with either control or GFRα1 shRNA. Tumor volume was measured every 3 or 4 days. Data are shown as mean±SEM. ** p<0.05. (c) Tumors that were generated from mice injected with MG-63 cells containing GFRα1 expressing vector were directly injected with PBS, CQ, cisplatin, or cisplatin+CQ. Tumor volume was measured every 4 days. […] Right, quantitative analysis of percentage of cytoplasmic HMGB1-positive cells in HMGB1-positive tumors. […] Right, quantitative analysis of percentage of TUNEL-positive cells in HMGB1-positive tumors. […]
Immunohistochemistry. […] For immunofluorescence, immunohistochemistry of patient tissues and mouse tumors are incubated with the Alexa Fluor 488- and 647-conjugated secondary antibodies (Invitrogen), and nuclei were counterstained with DAPI (Sigma-Aldrich) Immunofluorescence was detected by confocal microscopy. […] Thus, marked plus (+) was considered to be positive immunoreactivity, while that minus (−) was considered to be negative immunoreactivity (not detected). […]

With `N.N.[Cl][Pt][Cl]` [cisplatin, Cis-Diamineplatinum(II) dichloride] the “level of GFRα1 mRNA” value [1] was “increased” and the “HMGB1 expression localized in the cytoplasm” value [2] was “significant increase”.
